# pIC50: −log10 of the molar value.
# Molecular target: TBK1 (Homo sapiens (Human), UniProt Q9UHD2)
# Assay: TBK1 low ATP kinase assay (in vitro assay 1)
# Assay type: biochemical
# Conditions: in vitro assay 1, read-out: TBK1 low ATP kinase assay IC50
# Chain of TBK1 (Q9UHD2 whole entry): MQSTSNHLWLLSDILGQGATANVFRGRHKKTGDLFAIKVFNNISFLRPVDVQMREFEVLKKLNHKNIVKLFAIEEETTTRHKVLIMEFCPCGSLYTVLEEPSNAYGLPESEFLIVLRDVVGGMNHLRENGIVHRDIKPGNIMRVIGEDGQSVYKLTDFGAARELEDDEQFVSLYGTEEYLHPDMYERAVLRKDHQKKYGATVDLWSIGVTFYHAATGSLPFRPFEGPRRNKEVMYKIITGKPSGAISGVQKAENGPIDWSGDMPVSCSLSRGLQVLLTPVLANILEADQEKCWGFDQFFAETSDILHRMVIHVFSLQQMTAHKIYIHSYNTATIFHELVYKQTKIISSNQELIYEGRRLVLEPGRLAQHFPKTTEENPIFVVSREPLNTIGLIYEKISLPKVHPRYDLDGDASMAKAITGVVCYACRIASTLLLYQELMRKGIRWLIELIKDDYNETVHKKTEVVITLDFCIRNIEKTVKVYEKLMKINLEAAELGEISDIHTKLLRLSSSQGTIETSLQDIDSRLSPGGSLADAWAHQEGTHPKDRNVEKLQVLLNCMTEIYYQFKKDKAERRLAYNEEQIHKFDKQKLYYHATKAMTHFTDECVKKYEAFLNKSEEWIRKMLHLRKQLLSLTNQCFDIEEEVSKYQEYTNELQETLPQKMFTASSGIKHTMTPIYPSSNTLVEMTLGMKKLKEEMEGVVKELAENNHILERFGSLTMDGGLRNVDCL
row,SMILES,pIC50
1,"Cc1noc(-c2ccc3nc(Nc4cc(CN5CCN(C(=O)C6CC6)CC5(C)C)ccn4)[nH]c3c2)n1 [Example 16.04.04, cyclopropyl{3,3-dimethyl-4-[(2-{[6-(3-methyl-1,2,4-oxadiazol-5-yl)-1H-benzimidazol-2-yl]amino}pyridin-4-yl)methyl]piperazin-1-yl}methanone]",6.30
2,"Cc1noc(-c2ccc3nc(Nc4cc(CN5CCN(c6ncccn6)CC5)ccn4)[nH]c3c2)n1 [Example 101.05, 6-(3-methyl-1,2,4-oxadiazol-5-yl)-N-(4-{[4-(pyrimidin-2-yl)piperazin-1-yl]methyl}pyridin-2-yl)-1H-benzimidazol-2-amine]",6.11
3,"COc1nccc(-c2ccc3nc(Nc4cc(CN5CCN(C(=O)CC(F)(F)F)CC5)ccn4)[nH]c3c2)n1 [Example 25.01.04, 3,3,3-trifluoro-1-{4-[(2-{[6-(2-methoxypyrimidin-4-yl)-1H-benzimidazol-2-yl]amino}pyridin-4-yl)methyl]piperazin-1-yl}propan-1-one]",7.10
4,"CC(c1ccnc(Nc2nc3ccc(-c4cc(N5CC(C(F)(F)F)C5)ncn4)cc3[nH]2)c1)N1CCN(C(=O)C2CC2)CC1 (single isomer, unassigned) [Example 164.03, cyclopropyl{4-[(1R or 1S)-1-{2-[(6-{6-[3-(trifluoromethyl)azetidin-1-yl]pyrimidin-4-yl}-1H-benzimidazol-2-yl)amino]pyridin-4-yl}ethyl]piperazin-1-yl}methanone]",9.25
5,"CC(C)Oc1cncnc1-c1ccc2nc(Nc3cc(C(C)N4CCN(C(=O)C5CC5)CC4)ccn3)[nH]c2c1 (single isomer, unassigned) [Example 36.03, cyclopropyl(4-{(1R or 1S)-1-[2-({6-[5-(propan-2-yloxy)pyrimidin-4-yl]-1H-benzimidazol-2-yl}amino)pyridin-4-yl]ethyl}piperazin-1-yl)methanone]",8.67
6,"Cc1cc(-c2ccc3nc(Nc4cc(CN5CCN(C(=O)CC(F)(F)F)CC5)ccn4)[nH]c3c2)ccn1 [Example 01.03, 3,3,3-trifluoro-1-{4-[(2-{[6-(2-methylpyridin-4-yl)-1H-benzimidazol-2-yl]amino}pyridin-4-yl)methyl]piperazin-1-yl}propan-1-one]",7.27
7,"Cc1noc(-c2ccc3nc(Nc4cc(C(C)N5CCN(C(=O)C6CC6(F)F)CC5)ccn4)[nH]c3c2)n1 (single isomer, unassigned) [Example 16.06.05, ((1RS)-2,2-difluorocyclopropyl){4-[(1R or 1S)-1-(2-{[6-(3-methyl-1,2,4-oxadiazol-5-yl)-1H-benzimidazol-2-yl]amino}pyridin-4-yl)ethyl]piperazin-1-yl}methanone]",7.74
8,"Cc1cc(-c2ccc3nc(Nc4cc(C(C)N5CCN(C(=O)C6CC6)CC5)ccn4)[nH]c3c2)ncn1 (single isomer, unassigned) [Example 30.03.03.A, cyclopropyl{4-[(1R or 1S)-1-(2-{[6-(6-methylpyrimidin-4-yl)-1H-benzimidazol-2-yl]amino}pyridin-4-yl)ethyl]piperazin-1-yl}methanone]",8.51
9,"COc1nccc(-c2ccc3nc(Nc4cc(CN5CCN(C(=O)CC6CC6)CC5)ccn4)[nH]c3c2)n1 [Example 25.01.03, 2-cyclopropyl-1-{4-[(2-{[6-(2-methoxypyrimidin-4-yl)-1H-benzimidazol-2-yl]amino}pyridin-4-yl)methyl]piperazin-1-yl}ethanone]",7.01
10,"CC(O)c1cc(-c2ccc3nc(Nc4cc(CN5CCN(C(=O)OC(C)(C)C)CC5)ccn4)[nH]c3c2)ncn1 (racemic) [Example 97.01, (rac)-tert-butyl 4-({2-[(6-{6-[1-hydroxyethyl]pyrimidin-4-yl}-1H-benzimidazol-2-yl)amino]pyridin-4-yl}methyl)piperazine-1-carboxylate]",7.68

# From patent publication US10894784B2, “Heteroarylbenzimidazole compounds” (BAYER PHARMA AKTIENGESELLSCHAFT, priority 2015, dated 2021)
